Measurements published in the NIST ThermoML archive (doi:10.1021/je049572f).
Where “and” joins values, the source holds several entries; their conditions need not be identical. Equal entries are not always repeated. ± gives the expanded uncertainty stated by the source.

Tests used:
[1] = xn = mol fraction of the nth substance listed; conditions: 101.33 kPa, Liquid
[2] = 101.33 kPa, Liquid

Compound | mass density ([2]; 303.15 K) | viscosity ([2]; 303.15 K) | mass density ([2]; 313.15 K) | viscosity ([2]; 313.15 K) | mass density ([2]; 323.15 K) | viscosity ([2]; 323.15 K) | mass density ([2]; 333.15 K) | viscosity ([2]; 333.15 K) | mass density ([2]; 343.15 K) | viscosity ([2]; 343.15 K) | mass density ([2]; 353.15 K) | viscosity ([2]; 353.15 K) | further results
CCc1ccccc1 [ethylbenzene] + O=S1(=O)CCCC1 | – | – | – | – | – | – | – | – | – | – | – | – | mass density ([1]; 303.15 K, x1 = 1): 859.95 ± 3.6 kg/m3; viscosity ([1]; 303.15 K, x1 = 1): 0.598 ± 0.016 mPa·s; mass density ([1]; 313.15 K, x1 = 1): 851.14 ± 3.7 kg/m3; viscosity ([1]; 313.15 K, x1 = 1): 0.537 ± 0.015 mPa·s; mass density ([1]; 323.15 K, x1 = 1): 842.27 ± 3.8 kg/m3; viscosity ([1]; 323.15 K, x1 = 1): 0.483 ± 0.014 mPa·s; mass density ([1]; 333.15 K, x1 = 1): 833.34 ± 4 kg/m3; viscosity ([1]; 333.15 K, x1 = 1): 0.437 ± 0.013 mPa·s; mass density ([1]; 343.15 K, x1 = 1): 824.26 ± 4.1 kg/m3; viscosity ([1]; 343.15 K, x1 = 1): 0.397 ± 0.012 mPa·s; mass density ([1]; 353.15 K, x1 = 1): 815.18 ± 4.3 kg/m3; viscosity ([1]; 353.15 K, x1 = 1): 0.366 ± 0.012 mPa·s
O=S1(=O)CCCC1 [sulfolane] | 1260.8 ± 6.4 kg/m3 | 10.07 ± 0.32 mPa·s | 1251.9 ± 6.3 kg/m3 | 7.808 ± 0.25 mPa·s | 1243.36 ± 6.2 kg/m3 | 6.194 ± 0.2 mPa·s | 1234.62 ± 6 kg/m3 | 5.009 ± 0.17 mPa·s | 1225.92 ± 5.9 kg/m3 | 4.126 ± 0.14 mPa·s | 1216.8 ± 5.8 kg/m3 | 3.44 ± 0.12 mPa·s | –
CCCCCCCC [octane] + C=Cc1ccccc1 | – | – | – | – | – | – | – | – | – | – | – | – | mass density ([1]; 293.15 K, x2 = 0): 703.88 ± 3 kg/m3; viscosity ([1]; 293.15 K, x2 = 0): 0.534 ± 0.015 mPa·s; mass density ([1]; 298.15 K, x2 = 0): 699.83 ± 3.1 kg/m3; viscosity ([1]; 298.15 K, x2 = 0): 0.501 ± 0.014 mPa·s; mass density ([1]; 303.15 K, x2 = 0): 695.79 ± 3.1 kg/m3; viscosity ([1]; 303.15 K, x2 = 0): 0.472 ± 0.014 mPa·s; mass density ([1]; 313.15 K, x2 = 0): 687.59 ± 3.2 kg/m3; viscosity ([1]; 313.15 K, x2 = 0): 0.422 ± 0.013 mPa·s; mass density ([1]; 323.15 K, x2 = 0): 679.34 ± 3.2 kg/m3; viscosity ([1]; 323.15 K, x2 = 0): 0.38 ± 0.012 mPa·s; mass density ([1]; 333.15 K, x2 = 0): 670.98 ± 3.3 kg/m3; viscosity ([1]; 333.15 K, x2 = 0): 0.343 ± 0.011 mPa·s; mass density ([1]; 343.15 K, x2 = 0): 662.59 ± 3.4 kg/m3; viscosity ([1]; 343.15 K, x2 = 0): 0.314 ± 0.011 mPa·s; mass density ([1]; 353.15 K, x2 = 0): 654.05 ± 3.5 kg/m3; viscosity ([1]; 353.15 K, x2 = 0): 0.287 ± 0.01 mPa·s; mass density ([1]; 363.15 K, x2 = 0): 645.68 ± 3.5 kg/m3; viscosity ([1]; 363.15 K, x2 = 0): 0.261 ± 0.01 mPa·s
CCc1ccccc1 [ethylbenzene] | 859.95 ± 3.6 kg/m3 | 0.598 ± 0.016 mPa·s | 851.14 ± 3.7 kg/m3 | 0.537 ± 0.015 mPa·s | 842.3 ± 3.8 kg/m3 and 842.27 ± 3.8 kg/m3 | 0.483 ± 0.014 mPa·s | 833.34 ± 4 kg/m3 | 0.437 ± 0.013 mPa·s | 824.26 ± 4.1 kg/m3 | 0.397 ± 0.012 mPa·s | 815.18 ± 4.3 kg/m3 | 0.366 ± 0.012 mPa·s | –
C=Cc1ccccc1 [styrene] | 897.45 ± 1.5 kg/m3 | 0.654 ± 0.017 mPa·s | 888.53 ± 1.6 kg/m3 | 0.577 ± 0.016 mPa·s | 879.62 ± 1.6 kg/m3 | 0.513 ± 0.014 mPa·s | 870.64 ± 1.7 kg/m3 | 0.462 ± 0.013 mPa·s | 861.72 ± 1.8 kg/m3 | 0.419 ± 0.013 mPa·s | 852.68 ± 1.9 kg/m3 | 0.381 ± 0.012 mPa·s | mass density ([2]; 293.15 K): 906.29 ± 1.4 kg/m3; viscosity ([2]; 293.15 K): 0.749 ± 0.019 mPa·s; mass density ([2]; 298.15 K): 901.86 ± 1.4 kg/m3; viscosity ([2]; 298.15 K): 0.699 ± 0.018 mPa·s; mass density ([2]; 363.15 K): 843.99 ± 1.9 kg/m3; viscosity ([2]; 363.15 K): 0.349 ± 0.011 mPa·s
CCCCCCCC [octane] | 695.79 ± 3.1 kg/m3 | 0.472 ± 0.014 mPa·s | 687.59 ± 3.2 kg/m3 | 0.422 ± 0.013 mPa·s | 679.34 ± 3.2 kg/m3 | 0.38 ± 0.012 mPa·s | 670.98 ± 3.3 kg/m3 | 0.343 ± 0.011 mPa·s | 662.59 ± 3.4 kg/m3 | 0.314 ± 0.011 mPa·s | 654.05 ± 3.5 kg/m3 | 0.287 ± 0.01 mPa·s | mass density ([2]; 293.15 K): 703.88 ± 3 kg/m3; viscosity ([2]; 293.15 K): 0.534 ± 0.015 mPa·s; mass density ([2]; 298.15 K): 699.83 ± 3.1 kg/m3; viscosity ([2]; 298.15 K): 0.501 ± 0.014 mPa·s; mass density ([2]; 363.15 K): 645.68 ± 3.5 kg/m3; viscosity ([2]; 363.15 K): 0.261 ± 0.01 mPa·s
CN1CCCC1=O [N-methylpyrrolidone] | 1023.47 ± 3.2 kg/m3 | 1.554 ± 0.053 mPa·s | 1014.55 ± 3.1 kg/m3 | 1.332 ± 0.046 mPa·s | 1005.66 ± 3 kg/m3 | 1.16 ± 0.04 mPa·s | 996.71 ± 2.9 kg/m3 | 1.022 ± 0.036 mPa·s | 987.75 ± 3 kg/m3 | 0.908 ± 0.032 mPa·s | 978.76 ± 3 kg/m3 | 0.813 ± 0.029 mPa·s | –
CN1CCCC1=O [N-methylpyrrolidone] + CCc1ccccc1 | – | – | – | – | – | – | – | – | – | – | – | – | mass density ([1]; 303.15 K, x2 = 0): 1023.47 ± 3.2 kg/m3; viscosity ([1]; 303.15 K, x2 = 0): 1.554 ± 0.053 mPa·s; mass density ([1]; 313.15 K, x2 = 0): 1014.55 ± 3.1 kg/m3; viscosity ([1]; 313.15 K, x2 = 0): 1.332 ± 0.046 mPa·s; mass density ([1]; 323.15 K, x2 = 0): 1005.66 ± 3 kg/m3; viscosity ([1]; 323.15 K, x2 = 0): 1.16 ± 0.04 mPa·s; mass density ([1]; 333.15 K, x2 = 0): 996.71 ± 2.9 kg/m3; viscosity ([1]; 333.15 K, x2 = 0): 1.022 ± 0.036 mPa·s; mass density ([1]; 343.15 K, x2 = 0): 987.75 ± 3 kg/m3; viscosity ([1]; 343.15 K, x2 = 0): 0.908 ± 0.032 mPa·s; mass density ([1]; 353.15 K, x2 = 0): 978.76 ± 3 kg/m3; viscosity ([1]; 353.15 K, x2 = 0): 0.813 ± 0.029 mPa·s
